From ChEMBL document CHEMBL4043174, “Synthesis, conformational study and antiviral activity of l-like neplanocin derivatives” (Bioorg Med Chem Lett, 2017)
pEC50: −log10 of the molar value. Values after ≈ are worked out from the molar mass of the structure shown. Active and inactive are the calls of the source. The rule behind the calls is not given here.

Key:
[1] = test system: Japanese encephalitis virus; experiment: Antiviral activity against Japanese encepahalitis virus infected in African green monkey Vero cells; assay type: functional
Rift Valley fever virus [2] = experiment: Antiviral activity against Rift Valley fever virus infected in African green monkey Vero cells; assay type: functional
[3] = (§1) Cytotoxicity against African green monkey Vero cells assessed as reduction in cell viability; assay type: cell-based; conditions: chlorocebus sabaeus, Vero cells
Yellow fever virus [4] = experiment: Antiviral activity against Yellow fever virus infected in African green monkey Vero cells; assay type: functional
Dengue virus [5] = experiment: Antiviral activity against Dengue virus infected in African green monkey Vero cells; assay type: functional
Tacaribe virus = experiment: Antiviral activity against Tacaribe virus; assay type: functional; conditions: Mammarenavirus tacaribeense
Ebolavirus = experiment: Antiviral activity against Ebolavirus; assay type: functional; conditions: for EC50: Orthoebolavirus
Norovirus = experiment: Antiviral activity against Norovirus; assay type: functional
[6] = test system: Japanese encephalitis virus; experiment: Antiviral activity against Japanese encepahalitis virus; assay type: functional
[7] = test system: Venezuelan equine encephalitis virus; experiment: Antiviral activity against Venezuelan equine encephalitis virus; assay type: functional
Rift Valley fever virus [8] = experiment: Antiviral activity against Rift Valley fever virus; assay type: functional
Dengue virus [9] = experiment: Antiviral activity against Dengue virus; assay type: functional
Zika virus = experiment: Antiviral activity against Zika virus; assay type: functional
Chikungunya virus = experiment: Antiviral activity against Chikungunya virus; assay type: functional
Usutu virus = experiment: Antiviral activity against Usutu virus; assay type: functional
unidentified adenovirus = experiment: Antiviral activity against Adenovirus; assay type: functional
[10] = test system: Venezuelan equine encephalitis virus; experiment: Antiviral activity against Venezuelan equine encephalitis virus infected in African green monkey Vero cells; assay type: functional
West Nile virus [11] = experiment: Antiviral activity against West Nile virus; assay type: functional
West Nile virus [12] = experiment: Antiviral activity against West Nile virus infected in African green monkey Vero cells; assay type: functional
Measles morbillivirus = experiment: Antiviral activity against measles virus; assay type: functional
Yellow fever virus [13] = experiment: Antiviral activity against Yellow fever virus; assay type: functional
Punta Toro virus = experiment: Antiviral activity against Punta Toro virus; assay type: functional
Enterovirus C = experiment: Antiviral activity against Poliovirus; assay type: functional
Vero = experiment: as §1; assay type: cell-based; conditions: chlorocebus sabaeus, vero
Vaccinia virus = experiment: Antiviral activity against vaccinia virus infected in PRK cells assessed as reduction in virus-induced cytopathic effect after 2 to 3 days; assay type: functional, cell-based; conditions: Orthopoxvirus vaccinia
[14] = test system: Vesicular stomatitis virus; experiment: Antiviral activity against vesicular stomatitis virus infected in PRK cells assessed as reduction in virus-induced cytopathic effect after 1 to 2 days; assay type: functional, cell-based

Nc1ncc(Br)c2c1ncn2[C@H]1C=C[C@H](O)[C@@H]1O
IC50 [1]: 32 µg/mL (≈ 103 µM) | IC50 (Rift Valley fever virus [2]): 31 µg/mL (≈ 99.6 µM) | CC50 [3]: 27 to 32 µg/mL (≈ 86.8 to 103 µM) | IC50 (Yellow fever virus [4]): 32 µg/mL (≈ 103 µM) | IC50 (Dengue virus [5]): 7.2 µg/mL (≈ 23.1 µM) | Activity (Tacaribe virus): inactive | EC50 (Ebolavirus): 8.3 µg/mL (≈ 26.7 µM) | pEC50 (Norovirus): 4.48 | Activity [6]: inactive | Activity [7]: inactive | Activity (Rift Valley fever virus [8]): inactive | Activity (Dengue virus [9]): inactive | Activity (Zika virus): inactive | Activity (Chikungunya virus): inactive | Activity (Usutu virus): inactive | Activity (unidentified adenovirus): inactive | IC50 [10]: 27 µg/mL (≈ 86.8 µM) | Activity (West Nile virus [11]): inactive | IC50 (West Nile virus [12]): 32 µg/mL (≈ 103 µM) | Activity (Measles morbillivirus): inactive | Activity (Yellow fever virus [13]): inactive | Activity (Punta Toro virus): inactive | Activity (Enterovirus C): inactive

Nc1nccc2c1ncn2[C@@H]1[C@@H](O)[C@@H](O)[C@H]2C[C@H]21
Activity (Vero): Non-Toxic | Activity (Tacaribe virus): inactive | Activity (Ebolavirus): inactive | pEC50 (Norovirus): < 4.00 | Activity [6]: inactive | Activity [7]: inactive | Activity (Rift Valley fever virus [8]): inactive | Activity (Dengue virus [9]): inactive | Activity (Zika virus): inactive | Activity (Chikungunya virus): inactive | Activity (Usutu virus): inactive | Activity (unidentified adenovirus): inactive | Activity (West Nile virus [11]): inactive | Activity (Measles morbillivirus): inactive | Activity (Yellow fever virus [13]): inactive | Activity (Punta Toro virus): inactive | Activity (Enterovirus C): inactive

Nc1nccc2c1ncn2[C@H]1C=C[C@H](O)[C@@H]1O (relative stereo)
Activity (Vero): Non-Toxic | EC50 (Vaccinia virus): 0.7 µg/mL (≈ 3.01 µM) | Activity (Tacaribe virus): inactive | EC50 (Ebolavirus): 29.5 µg/mL (≈ 127 µM) | pEC50 (Norovirus): 5.38 | EC50 [14]: 0.2 µg/mL (≈ 0.861 µM) | Activity [6]: inactive | Activity [7]: inactive | Activity (Rift Valley fever virus [8]): inactive | Activity (Dengue virus [9]): inactive | Activity (Zika virus): inactive | Activity (Chikungunya virus): inactive | Activity (Usutu virus): inactive | Activity (unidentified adenovirus): inactive | Activity (West Nile virus [11]): inactive | Activity (Measles morbillivirus): inactive | Activity (Yellow fever virus [13]): inactive | Activity (Punta Toro virus): inactive | Activity (Enterovirus C): inactive

Nc1ncc(Br)c2c1ncn2[C@@H]1[C@@H](O)[C@@H](O)[C@H]2C[C@H]21
Activity (Vero): Non-Toxic | Activity (Tacaribe virus): inactive | Activity (Ebolavirus): inactive | pEC50 (Norovirus): 5.52 | Activity [6]: inactive | Activity [7]: inactive | Activity (Rift Valley fever virus [8]): inactive | Activity (Dengue virus [9]): inactive | Activity (Zika virus): inactive | Activity (Chikungunya virus): inactive | Activity (Usutu virus): inactive | Activity (unidentified adenovirus): inactive | Activity (West Nile virus [11]): inactive | Activity (Measles morbillivirus): inactive | Activity (Yellow fever virus [13]): inactive | Activity (Punta Toro virus): inactive | Activity (Enterovirus C): inactive
